Experimental data as given in paper PMC9124699 (International Journal of Nanomedicine, 2022).
Like-named read-outs stand apart in the source and are kept apart here. Each block holds one compound with its values, some of them ahead of it.

What was measured:
[1] = no reference given, cited from earlier work
[2] = 1 mg intravenous administration; no reference given; cited from earlier work
[3] = no reference given, cited from earlier work; remark: listed apart in the source
[4] = Degradation of LEU and L18FCs and conversion to LEU in human plasma; assay type: in vitro ADME

Compound: CCCCCCCCCCCCCCCCCC(=O)O [Stearic acid]
- log P ([1]; C18 fatty acids, Table 2): 8.23

Compound: CCCCC/C=C\C/C=C\CCCCCCCC(=O)O [Linoleic acid]
- log P ([1]; C18 fatty acids, Table 2): 7.05

Compound: leuprolide acetate [LEU acetate]
- Half life [2]: 3 h
- log P ([1]; LEU acetate, Table 1): −2.7–1.07
- Solubility ([3]; in water): ≥ 66.66 mg/mL (52.51 mM) in water

- metabolised at 840 h, 1 mg/mL [4]: ~45.8%
Compound: CCNC(=O)[C@@H]1CCCN1C(=O)[C@H](CCCNC(=N)N)NC(=O)[C@H](CC(C)C)NC(=O)[C@@H](CC(C)C)NC(=O)[C@H](Cc1ccc(O)cc1)NC(=O)[C@H](CO)NC(=O)[C@H](Cc1c[nH]c2ccccc12)NC(=O)[C@H](Cc1c[nH]cn1)NC(=O)[C@@H]1CCC(=O)N1 [LEU, leuprolide]
- Solubility in phosphate buffered solution (PBS) ([3]; PBS, introduction statement): approximately 10 mg/mL

Compound: CCCCCCCC/C=C\CCCCCCCC(=O)O [Oleic acid]
- log P ([1]; C18 fatty acids, Table 2): 7.64
